Assay results from ChEMBL document CHEMBL1144680, “Structure-guided design of aminopyrimidine amides as potent, selective inhibitors of lymphocyte specific kinase: synthesis, structure-activity relationships, and inhibition of in vivo T cell activation” (J Med Chem, 2008).
pIC50: −log10 of the molar value.

Columns and labels:
[1] = target: T1, Tyrosine-protein kinase JAK3 (Homo sapiens, UniProt P52333); experiment: Inhibition of Jak3 by HTRF assay
T1 sequence (P52333 whole entry): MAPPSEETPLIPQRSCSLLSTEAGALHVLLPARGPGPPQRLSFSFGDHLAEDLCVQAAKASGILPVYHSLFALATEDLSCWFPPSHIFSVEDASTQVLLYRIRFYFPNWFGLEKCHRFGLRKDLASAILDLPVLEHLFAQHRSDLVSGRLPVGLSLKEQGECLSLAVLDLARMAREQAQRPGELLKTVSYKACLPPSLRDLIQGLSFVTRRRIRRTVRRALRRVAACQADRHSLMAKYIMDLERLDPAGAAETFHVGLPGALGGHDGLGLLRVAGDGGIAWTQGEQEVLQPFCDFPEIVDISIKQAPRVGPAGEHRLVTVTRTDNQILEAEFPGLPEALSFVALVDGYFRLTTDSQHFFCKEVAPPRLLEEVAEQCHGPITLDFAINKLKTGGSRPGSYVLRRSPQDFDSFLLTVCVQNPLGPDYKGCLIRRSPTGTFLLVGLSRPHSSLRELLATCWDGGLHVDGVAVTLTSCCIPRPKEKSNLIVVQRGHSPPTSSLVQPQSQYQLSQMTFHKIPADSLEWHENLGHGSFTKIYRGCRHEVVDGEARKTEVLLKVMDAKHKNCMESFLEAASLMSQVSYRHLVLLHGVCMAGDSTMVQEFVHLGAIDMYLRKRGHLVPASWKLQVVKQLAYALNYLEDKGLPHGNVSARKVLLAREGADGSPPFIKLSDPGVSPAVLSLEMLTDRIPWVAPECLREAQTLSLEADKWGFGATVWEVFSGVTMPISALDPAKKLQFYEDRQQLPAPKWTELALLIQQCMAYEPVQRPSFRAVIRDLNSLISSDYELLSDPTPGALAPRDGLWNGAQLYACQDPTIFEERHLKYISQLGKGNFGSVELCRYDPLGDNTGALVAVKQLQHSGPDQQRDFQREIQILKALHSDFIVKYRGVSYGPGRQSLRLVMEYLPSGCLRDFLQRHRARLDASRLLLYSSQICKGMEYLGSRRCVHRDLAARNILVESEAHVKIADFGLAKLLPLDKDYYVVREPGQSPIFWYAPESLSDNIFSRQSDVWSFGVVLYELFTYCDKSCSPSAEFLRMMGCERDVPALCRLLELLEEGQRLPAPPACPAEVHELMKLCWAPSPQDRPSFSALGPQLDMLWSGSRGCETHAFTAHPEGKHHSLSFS

Angiopoietin-1 receptor = Angiopoietin-1 receptor (Homo sapiens, UniProt Q02763); experiment: Inhibition of Tie2 by HTRF assay
Angiopoietin-1 receptor, sequence (Q02763 whole entry): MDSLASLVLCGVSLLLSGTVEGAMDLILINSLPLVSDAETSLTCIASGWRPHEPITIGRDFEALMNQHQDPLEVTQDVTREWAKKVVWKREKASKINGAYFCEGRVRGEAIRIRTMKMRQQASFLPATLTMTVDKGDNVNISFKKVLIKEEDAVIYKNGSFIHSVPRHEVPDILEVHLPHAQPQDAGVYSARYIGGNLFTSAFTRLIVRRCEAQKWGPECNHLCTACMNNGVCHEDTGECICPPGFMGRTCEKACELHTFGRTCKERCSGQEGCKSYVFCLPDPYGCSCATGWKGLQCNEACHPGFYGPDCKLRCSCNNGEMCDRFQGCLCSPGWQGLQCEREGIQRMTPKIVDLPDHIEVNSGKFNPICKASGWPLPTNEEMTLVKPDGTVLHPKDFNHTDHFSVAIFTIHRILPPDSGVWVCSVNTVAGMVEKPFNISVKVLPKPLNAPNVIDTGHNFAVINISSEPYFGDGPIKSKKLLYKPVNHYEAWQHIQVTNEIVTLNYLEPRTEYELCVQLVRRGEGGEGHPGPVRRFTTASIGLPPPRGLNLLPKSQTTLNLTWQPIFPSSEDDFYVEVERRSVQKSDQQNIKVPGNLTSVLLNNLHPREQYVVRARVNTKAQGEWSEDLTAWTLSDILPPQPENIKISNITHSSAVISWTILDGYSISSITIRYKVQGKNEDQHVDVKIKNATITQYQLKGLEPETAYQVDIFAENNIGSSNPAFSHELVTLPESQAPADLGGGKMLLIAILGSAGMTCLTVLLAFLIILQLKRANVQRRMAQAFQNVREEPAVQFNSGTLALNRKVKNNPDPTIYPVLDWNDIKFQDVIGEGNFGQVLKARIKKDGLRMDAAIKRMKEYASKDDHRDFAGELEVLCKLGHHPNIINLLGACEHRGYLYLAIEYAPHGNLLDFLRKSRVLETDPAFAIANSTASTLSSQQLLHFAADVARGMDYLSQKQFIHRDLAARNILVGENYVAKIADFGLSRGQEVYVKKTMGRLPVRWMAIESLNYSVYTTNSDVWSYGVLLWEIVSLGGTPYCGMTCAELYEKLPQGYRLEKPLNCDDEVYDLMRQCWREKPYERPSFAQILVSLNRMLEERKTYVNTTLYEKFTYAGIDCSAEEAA

[2] = target: Mitogen-activated protein kinase 14 (Homo sapiens, UniProt Q16539); experiment: Inhibition of p38alpha by HTRF assay
Mitogen-activated protein kinase 14, sequence (Q16539 whole entry): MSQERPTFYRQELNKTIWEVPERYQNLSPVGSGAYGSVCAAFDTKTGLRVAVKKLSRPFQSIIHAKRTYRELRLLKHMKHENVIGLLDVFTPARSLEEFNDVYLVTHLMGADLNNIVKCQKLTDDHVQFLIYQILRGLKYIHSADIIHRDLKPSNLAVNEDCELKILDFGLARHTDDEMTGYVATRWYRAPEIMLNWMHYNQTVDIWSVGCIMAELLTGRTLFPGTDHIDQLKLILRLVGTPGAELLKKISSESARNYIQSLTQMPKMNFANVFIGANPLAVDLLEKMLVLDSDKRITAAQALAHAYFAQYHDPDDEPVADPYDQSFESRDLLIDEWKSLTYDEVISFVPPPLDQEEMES

[3] = target: Vascular endothelial growth factor receptor 2 (Homo sapiens, UniProt P35968); experiment: Inhibition of KDR by HTRF assay
Vascular endothelial growth factor receptor 2, sequence (P35968 whole entry): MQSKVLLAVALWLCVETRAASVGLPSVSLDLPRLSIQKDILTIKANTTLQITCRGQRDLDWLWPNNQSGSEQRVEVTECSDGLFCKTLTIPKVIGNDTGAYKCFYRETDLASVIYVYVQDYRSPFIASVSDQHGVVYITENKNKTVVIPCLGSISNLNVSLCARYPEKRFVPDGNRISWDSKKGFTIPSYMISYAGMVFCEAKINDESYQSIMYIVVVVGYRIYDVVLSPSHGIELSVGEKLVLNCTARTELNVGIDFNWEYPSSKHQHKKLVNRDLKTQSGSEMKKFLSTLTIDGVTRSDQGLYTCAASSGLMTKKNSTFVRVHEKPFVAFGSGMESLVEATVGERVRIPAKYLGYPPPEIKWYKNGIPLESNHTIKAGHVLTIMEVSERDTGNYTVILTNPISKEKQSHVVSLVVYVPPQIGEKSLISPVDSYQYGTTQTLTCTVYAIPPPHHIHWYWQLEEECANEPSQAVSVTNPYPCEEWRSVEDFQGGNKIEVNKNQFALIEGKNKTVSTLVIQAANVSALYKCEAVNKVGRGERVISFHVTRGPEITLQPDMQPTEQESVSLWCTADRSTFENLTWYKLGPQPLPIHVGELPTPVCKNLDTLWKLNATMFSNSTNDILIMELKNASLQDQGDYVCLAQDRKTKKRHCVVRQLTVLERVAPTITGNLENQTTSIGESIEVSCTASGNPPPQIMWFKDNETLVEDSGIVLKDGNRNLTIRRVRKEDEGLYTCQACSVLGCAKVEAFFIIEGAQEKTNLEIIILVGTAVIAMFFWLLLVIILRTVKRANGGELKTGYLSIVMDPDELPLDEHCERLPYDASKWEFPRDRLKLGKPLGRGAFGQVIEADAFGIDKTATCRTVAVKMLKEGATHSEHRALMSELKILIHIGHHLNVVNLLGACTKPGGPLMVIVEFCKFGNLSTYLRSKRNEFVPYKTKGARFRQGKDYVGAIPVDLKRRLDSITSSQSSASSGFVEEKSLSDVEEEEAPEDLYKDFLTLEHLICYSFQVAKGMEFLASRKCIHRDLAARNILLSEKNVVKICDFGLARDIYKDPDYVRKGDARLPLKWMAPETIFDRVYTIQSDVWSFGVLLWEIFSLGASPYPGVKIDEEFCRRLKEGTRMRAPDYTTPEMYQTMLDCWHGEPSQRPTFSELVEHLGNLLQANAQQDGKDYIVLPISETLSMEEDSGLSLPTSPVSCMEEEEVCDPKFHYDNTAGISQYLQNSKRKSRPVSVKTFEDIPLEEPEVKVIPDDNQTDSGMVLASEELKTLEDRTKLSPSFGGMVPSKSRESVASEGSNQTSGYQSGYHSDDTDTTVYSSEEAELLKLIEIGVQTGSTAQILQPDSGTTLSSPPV

[4] = target: Tyrosine-protein kinase Lck (Homo sapiens, UniProt P06239)
Tyrosine-protein kinase Lck, sequence (P06239 whole entry): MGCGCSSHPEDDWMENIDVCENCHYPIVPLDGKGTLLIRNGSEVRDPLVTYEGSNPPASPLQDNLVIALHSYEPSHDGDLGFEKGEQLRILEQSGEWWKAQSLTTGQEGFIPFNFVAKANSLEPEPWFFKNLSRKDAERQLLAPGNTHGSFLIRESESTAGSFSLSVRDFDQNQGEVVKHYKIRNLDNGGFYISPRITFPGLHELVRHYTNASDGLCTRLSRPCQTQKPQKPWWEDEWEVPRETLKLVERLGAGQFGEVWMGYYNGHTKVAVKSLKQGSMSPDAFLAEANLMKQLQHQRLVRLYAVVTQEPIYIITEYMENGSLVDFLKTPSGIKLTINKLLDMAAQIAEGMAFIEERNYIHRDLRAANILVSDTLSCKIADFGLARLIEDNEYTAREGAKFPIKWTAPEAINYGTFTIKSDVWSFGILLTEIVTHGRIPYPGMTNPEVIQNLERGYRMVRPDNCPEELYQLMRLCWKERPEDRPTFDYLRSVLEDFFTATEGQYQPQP
Description: Inhibition of Lck by HTRF assay

Lymphocyte = experiment: Inhibition of T cell activation in human peripheral blood lymphocytes by mixed lymphocyte reaction; assay type: functional, cell-based
[5] = Protein binding in mouse plasma; assay type: ADME, cell-free; conditions: read-out: PB (converted)
Blood [6] = experiment: Inhibition of anti-CD3-induced IL2 production in human whole blood by ELISA; assay type: functional, tissue-based
[7] = Volume of distribution at steady state in Sprague-Dawley rat at 0.5 mg/kg, iv; assay type: ADME, organism-based; set-up: dose 0.5 mg/kg, route intravenous; conditions: in vivo, read-out: Vdss
[8] = Tmax in Sprague-Dawley rat at 2 mg/kg; assay type: ADME, organism-based; set-up: dose 2 mg/kg; conditions: in vivo
[9] = Protein binding in rat plasma; assay type: ADME, cell-free; conditions: read-out: PB (converted)
[10] = AUC (0 to infinity) in Sprague-Dawley rat at 2 mg/kg, po; assay type: ADME, organism-based; set-up: time infinity, dose 2 mg/kg, route oral; conditions: plasma
[11] = Cmax in Sprague-Dawley rat at 2 mg/kg, po; assay type: ADME, organism-based; set-up: dose 2 mg/kg, route oral; conditions: in vivo
[12] = Half life in Sprague-Dawley rat at 0.5 mg/kg, iv; assay type: ADME, organism-based; set-up: dose 0.5 mg/kg, route intravenous; conditions: in vivo
[13] = Oral bioavailability in Sprague-Dawley rat at 2 mg/kg; assay type: ADME, organism-based; conditions: in vivo
[14] = Clearance in Sprague-Dawley rat at 0.5 mg/kg, iv; assay type: ADME, organism-based; set-up: dose 0.5 mg/kg, route intravenous; conditions: in vivo
Mus musculus = organism: Mus musculus; experiment: Inhibition of anti-CD3-induced IL2 production in BALB/c mouse; assay type: functional
Blood [15] = experiment: Inhibition of LPS-induced TNFalpha production in human whole blood by ELISA; assay type: functional, tissue-based

SMILES	pIC50 [1]	pIC50 (Angiopoietin-1 receptor)	pIC50 [2]	pIC50 [3]	pIC50 [4]	pIC50 (Lymphocyte)	fraction unbound [5]	pIC50 (Blood [6])	Vd [7] [L/kg]	Tmax [8] [h]	fraction unbound [9]	AUC(0-inf) [10] [ng·h/mL]	Cmax [11] [ng/mL]	half-life [12] [h]	bioavailability [13] [%]	clearance [14] [mL/min/kg]	pIC50 (Blood [15])	ED50 (Mus musculus) [mg/kg]
Cc1ccc(NC(=O)Nc2cccc(C(F)(F)F)c2)cc1C(=O)Nc1cnc(Nc2ccc(N3CCN(C)CC3)cc2)nc1	< 4.60	< 5.08	8.70	7.39	9.22	7.06												
C/C=C/C[C@@H](C)[C@@H](O)[C@H]1C(=O)N[C@@H](CC)C(=O)N(C)CC(=O)N(C)[C@@H](CC(C)C)C(=O)N[C@@H](C(C)C)C(=O)N(C)[C@@H](CC(C)C)C(=O)N[C@@H](C)C(=O)N[C@H](C)C(=O)N(C)[C@@H](CC(C)C)C(=O)N(C)[C@@H](CC(C)C)C(=O)N(C)[C@@H](C(C)C)C(=O)N1C [CYCLOSPORINE]																		10
Cc1ccc(NC(=O)c2cc(F)cc(C(F)(F)F)c2)cc1C(=O)Nc1cnc(Nc2ccc(N3CCN(C)CC3)cc2)nc1	< 4.60	5.22	8.52	7.77	9.52	7.68	0.018	7.80	1.61	0.6	0.023	332	39	3.8	8	8.17	6.00	
Cc1ccc(C(=O)Nc2cccc(C(F)(F)F)c2)cc1C(=O)Nc1cnc(Nc2ccc(N3CCN(C)CC3)cc2)nc1	6.36	6.91	8.00	8.30		7.82												
CN1CCN(c2ccc(Nc3ncc(NC(=O)c4c(Cl)cccc4Cl)cn3)cc2)CC1	< 4.60	< 4.60	5.97	< 4.60	8.00	6.26												
Cc1ccc(NC(=O)c2cccc(C(F)(F)F)c2)cc1C(=O)Nc1cnc(NCCCN2CCOCC2)nc1	< 4.60	< 4.60	8.00	< 5.08	7.62	6.09												

Second part, led by results:

pIC50 [1]	pIC50 (Angiopoietin-1 receptor)	pIC50 [2]	pIC50 [3]	pIC50 [4]	pIC50 (Lymphocyte)	fraction unbound [5]	pIC50 (Blood [6])	Vd [7] [L/kg]	Tmax [8] [h]	fraction unbound [9]	AUC(0-inf) [10] [ng·h/mL]	Cmax [11] [ng/mL]	half-life [12] [h]	bioavailability [13] [%]	clearance [14] [mL/min/kg]	pIC50 (Blood [15])	SMILES	ED50 (Mus musculus) [mg/kg]
< 4.60	< 4.60	6.70	< 5.08														Cc1ccc(NC(=O)c2cccc(C(F)(F)F)c2)cc1C(=O)Nc1cncnc1	
< 4.60	< 5.08	8.40	6.92	8.85	7.11	0.012	7.37	0.79	0.33	0.017	528	191	2.5	8	4.83		COc1cc(OC)cc(C(=O)Nc2ccc(C)c(C(=O)Nc3cnc(Nc4ccc(N5CCN(C)CC5)cc4)nc3)c2)c1	
< 4.60	< 4.60	6.75	5.42	7.85	5.41												Cc1ccc(NC(=O)c2cnoc2C)cc1C(=O)Nc1cnc(Nc2ccc(N3CCN(C)CC3)cc2)nc1	
< 4.60	< 4.60	7.20	< 5.30	7.32													CC(=O)Nc1ccc(C)c(C(=O)Nc2cnc(Nc3ccc(N4CCN(C)CC4)cc3)nc2)c1	
< 4.60	< 5.08	8.00	6.57	8.89	7.24	0.019	7.89	3.76	0.42	0.011	58	16	2.5	4	22.8		Cc1ccc(NC(=O)c2ccc3c(c2)OC(F)(F)O3)cc1C(=O)Nc1cnc(Nc2ccc(N3CCN(C)CC3)cc2)nc1	
< 4.60	< 4.60	8.10	5.95	8.30	6.40												COc1ccccc1C(=O)Nc1ccc(C)c(C(=O)Nc2cnc(Nc3ccc(N4CCN(C)CC4)cc3)nc2)c1	
< 4.60	< 4.60		6.90		6.97		5.90									< 5.00	Cc1ccc(NC(=O)c2cccc(C(F)(F)F)c2)cc1C(=O)Nc1cnc(N)nc1	
